From ChEMBL document CHEMBL1909046, “DrugMatrix in vitro pharmacology data”

What was measured:
[1] = target: Matrix metalloproteinase-9 (Homo sapiens, UniProt P14780); assay type: cell-based;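 note: inhibition of isolated MMP-9 enzyme activity toward a synthetic peptide substrate, from the DrugMatrix protease screening panel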
Caspase-1 = target: T1, Caspase-1 (Homo sapiens, UniProt P29466); set-up: species or system Escherichia coli;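 note: Caspase-1 enzyme inhibition assay with a peptide substrate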
T1 sequence (P29466 whole entry): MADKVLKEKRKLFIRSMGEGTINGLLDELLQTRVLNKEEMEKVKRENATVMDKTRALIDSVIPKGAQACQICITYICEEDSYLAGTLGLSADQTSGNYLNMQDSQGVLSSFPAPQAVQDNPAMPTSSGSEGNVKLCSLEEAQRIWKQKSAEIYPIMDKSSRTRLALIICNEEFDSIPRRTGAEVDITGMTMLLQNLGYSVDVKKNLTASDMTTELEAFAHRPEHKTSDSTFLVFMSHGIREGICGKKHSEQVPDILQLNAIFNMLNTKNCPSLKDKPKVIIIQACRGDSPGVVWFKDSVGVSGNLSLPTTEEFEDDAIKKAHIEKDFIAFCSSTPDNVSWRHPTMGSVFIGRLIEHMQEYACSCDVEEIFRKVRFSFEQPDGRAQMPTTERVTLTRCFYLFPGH

Histamine H2 receptor = Histamine H2 receptor (Homo sapiens, UniProt P25021); assay type: cell membranes, CHO-K1, Membrane
[2] = target: T2, C-X-C chemokine receptor type 2 (Homo sapiens, UniProt P25025); assay type: cell membranes, CHO-K1, Membrane
T2 sequence (P25025 whole entry): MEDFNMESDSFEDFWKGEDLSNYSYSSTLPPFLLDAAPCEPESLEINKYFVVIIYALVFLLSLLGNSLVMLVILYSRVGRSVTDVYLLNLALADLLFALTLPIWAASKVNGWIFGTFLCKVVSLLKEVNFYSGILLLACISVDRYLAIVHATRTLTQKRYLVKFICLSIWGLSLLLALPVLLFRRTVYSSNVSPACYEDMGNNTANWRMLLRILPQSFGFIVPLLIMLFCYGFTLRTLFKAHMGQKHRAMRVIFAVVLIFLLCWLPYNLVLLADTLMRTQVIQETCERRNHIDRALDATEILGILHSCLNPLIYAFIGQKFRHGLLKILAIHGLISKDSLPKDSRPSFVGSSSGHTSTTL

[3] = target: T3, Vasoactive intestinal polypeptide receptor 1 (Homo sapiens, UniProt P32241); assay type: cell membranes, Membrane; conditions: ht-29
T3 sequence (P32241 whole entry): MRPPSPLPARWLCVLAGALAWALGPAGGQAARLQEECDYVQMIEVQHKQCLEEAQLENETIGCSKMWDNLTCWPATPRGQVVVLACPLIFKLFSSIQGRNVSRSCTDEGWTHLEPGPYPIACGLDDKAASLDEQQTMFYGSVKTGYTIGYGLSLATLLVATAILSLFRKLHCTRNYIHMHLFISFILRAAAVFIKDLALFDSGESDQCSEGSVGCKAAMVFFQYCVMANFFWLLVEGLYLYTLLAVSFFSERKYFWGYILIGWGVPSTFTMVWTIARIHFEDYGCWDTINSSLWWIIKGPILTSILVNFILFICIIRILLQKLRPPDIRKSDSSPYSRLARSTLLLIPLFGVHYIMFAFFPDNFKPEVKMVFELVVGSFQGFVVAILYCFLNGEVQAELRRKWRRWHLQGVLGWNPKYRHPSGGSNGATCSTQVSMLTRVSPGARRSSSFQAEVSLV

[4] = target: T4, Muscarinic acetylcholine receptor M5 (Homo sapiens, UniProt P08912); assay type: cell membranes, CHO-K1, Membrane; conditions: cho-k1
T4 sequence (P08912 whole entry): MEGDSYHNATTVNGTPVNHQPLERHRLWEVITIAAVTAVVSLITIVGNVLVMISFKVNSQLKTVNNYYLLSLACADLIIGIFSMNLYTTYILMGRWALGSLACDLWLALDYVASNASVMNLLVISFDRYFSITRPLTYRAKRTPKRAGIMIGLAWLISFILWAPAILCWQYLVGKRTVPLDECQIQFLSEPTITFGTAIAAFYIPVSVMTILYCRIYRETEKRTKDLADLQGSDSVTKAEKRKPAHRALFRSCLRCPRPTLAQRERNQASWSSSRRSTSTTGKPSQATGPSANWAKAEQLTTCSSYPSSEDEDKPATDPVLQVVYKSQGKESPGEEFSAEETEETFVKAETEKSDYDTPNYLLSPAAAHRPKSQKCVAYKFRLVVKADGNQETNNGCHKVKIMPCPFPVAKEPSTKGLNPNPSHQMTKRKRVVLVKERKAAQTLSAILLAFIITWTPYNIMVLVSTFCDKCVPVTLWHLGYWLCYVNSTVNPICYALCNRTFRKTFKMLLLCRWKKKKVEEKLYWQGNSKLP
Note: in other assays of this panel Not Active means under 50% inhibition at 10 µM.

Chain of Matrix metalloproteinase-9 (P14780 whole entry): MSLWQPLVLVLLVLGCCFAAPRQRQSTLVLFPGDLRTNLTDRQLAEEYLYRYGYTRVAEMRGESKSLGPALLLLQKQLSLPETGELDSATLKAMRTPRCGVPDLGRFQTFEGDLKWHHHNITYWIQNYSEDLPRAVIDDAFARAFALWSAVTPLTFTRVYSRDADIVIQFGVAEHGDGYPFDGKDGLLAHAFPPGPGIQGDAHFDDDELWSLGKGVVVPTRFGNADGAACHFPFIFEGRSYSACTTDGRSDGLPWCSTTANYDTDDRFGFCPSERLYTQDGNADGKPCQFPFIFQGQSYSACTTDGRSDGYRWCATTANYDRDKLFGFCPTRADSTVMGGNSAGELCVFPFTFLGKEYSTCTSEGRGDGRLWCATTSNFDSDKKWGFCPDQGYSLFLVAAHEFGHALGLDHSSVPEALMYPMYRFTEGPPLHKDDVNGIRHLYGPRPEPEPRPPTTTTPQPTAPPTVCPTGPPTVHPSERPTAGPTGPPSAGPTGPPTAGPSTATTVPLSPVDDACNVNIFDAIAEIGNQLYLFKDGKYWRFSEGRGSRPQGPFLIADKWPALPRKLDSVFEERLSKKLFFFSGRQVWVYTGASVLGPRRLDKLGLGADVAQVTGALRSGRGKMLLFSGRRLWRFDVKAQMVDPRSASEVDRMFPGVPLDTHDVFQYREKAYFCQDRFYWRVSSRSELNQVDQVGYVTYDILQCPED
Chain of Histamine H2 receptor (P25021 whole entry): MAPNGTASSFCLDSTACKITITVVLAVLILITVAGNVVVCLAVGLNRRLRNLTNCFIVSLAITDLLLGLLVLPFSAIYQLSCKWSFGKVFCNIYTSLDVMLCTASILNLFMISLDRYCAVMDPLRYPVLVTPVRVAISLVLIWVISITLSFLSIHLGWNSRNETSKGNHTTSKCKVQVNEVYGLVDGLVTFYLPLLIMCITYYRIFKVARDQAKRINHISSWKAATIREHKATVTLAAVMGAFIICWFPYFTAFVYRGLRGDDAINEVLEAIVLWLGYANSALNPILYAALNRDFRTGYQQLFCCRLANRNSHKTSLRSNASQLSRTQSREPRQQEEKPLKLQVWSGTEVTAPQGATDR

Compound: CN1C(=O)OC(C)(C)C1=O [TRIMETHADIONE]
- IC50 [1]: Not Active
- IC50 (Caspase-1): Not Active
- IC50 (Histamine H2 receptor; cho-k1): Not Active
- IC50 ([2]; cho-k1): Not Active
- IC50 [3]: Not Active
- IC50 [4]: Not Active

Compound: Cc1cn([C@H]2C=C[C@@H](CO)O2)c(=O)[nH]c1=O [STAVUDINE]
- IC50 [1]: Not Active
- IC50 (Caspase-1): Not Active
- IC50 (Histamine H2 receptor; cho-k1): Not Active
- IC50 ([2]; cho-k1): Not Active
- IC50 [3]: Not Active
- IC50 [4]: Not Active

Compound: CN1C[C@H](CNC(=O)OCc2ccccc2)C[C@@H]2c3cccc4c3c(cn4C)C[C@H]21 [METERGOLINE]
- IC50 [1]: Not Active
- IC50 (Caspase-1): Not Active
- IC50 (Histamine H2 receptor; read-out: IC50): 0.975 µM
- Ki (Histamine H2 receptor; read-out: Ki): 0.959 µM
- IC50 ([2]; cho-k1): Not Active
- IC50 [3]: Not Active
- IC50 [4]: Not Active

Compound: CCN(CC)C(=S)SSC(=S)N(CC)CC
- IC50 [1]: Not Active
- IC50 (Caspase-1): Not Active
- IC50 (Histamine H2 receptor; cho-k1): Not Active
- IC50 ([2]; read-out: IC50): 6.01 µM
- Ki ([2]; read-out: Ki): 4.21 µM
- IC50 [3]: Not Active
- IC50 [4]: Not Active

Compound: Cc1cc2c(s1)Nc1ccccc1N=C2N1CCN(C)CC1 [OLANZAPINE]
- IC50 [1]: Not Active
- IC50 (Caspase-1): Not Active
- IC50 (Histamine H2 receptor; cho-k1): Not Active
- IC50 ([2]; cho-k1): Not Active
- IC50 [3]: Not Active

Compound: CC(C)(C)NC[C@H](O)COc1cccc2c1CCCC2=O [LEVOBUNOLOL]
- IC50 [1]: Not Active
- IC50 (Caspase-1): Not Active
- IC50 (Histamine H2 receptor; cho-k1): Not Active
- IC50 ([2]; cho-k1): Not Active
- IC50 [3]: Not Active
- IC50 [4]: Not Active

Compound: Nc1nc(N)c2nc(-c3ccccc3)c(N)nc2n1
- IC50 [1]: Not Active
- IC50 (Caspase-1; read-out: IC50): 3.66 µM
- IC50 (Histamine H2 receptor; cho-k1): Not Active
- IC50 ([2]; cho-k1): Not Active
- IC50 [3]: Not Active
- IC50 [4]: Not Active

Compound: Cc1ccc(S(=O)(=O)NC(=O)NN2CCCCCC2)cc1 [TOLAZAMIDE]
- IC50 [1]: Not Active
- IC50 (Caspase-1): Not Active
- IC50 (Histamine H2 receptor; cho-k1): Not Active
- IC50 ([2]; cho-k1): Not Active
- IC50 [3]: Not Active
- IC50 [4]: Not Active

Compound: Cc1ccc(Cl)c(Nc2ccccc2C(=O)O)c1Cl [MECLOFENAMIC ACID]
- IC50 [1]: Not Active
- IC50 (Caspase-1): Not Active
- IC50 (Histamine H2 receptor; cho-k1): Not Active
- IC50 ([2]; cho-k1): Not Active
- IC50 [3]: Not Active
- IC50 [4]: Not Active

Compound: CO[C@@H]1[C@@H](OC)[C@H](C)[C@@](O)(CC(=O)O)O[C@H]1[C@H](C)[C@H]1O[C@@]2(CC[C@@](C)([C@H]3CC[C@@](C)([C@@H]4O[C@@H]([C@H]5O[C@](C)(O)[C@H](C)C[C@@H]5C)C[C@@H]4O[C@@H]4C[C@H](OC)[C@@H](OC)[C@H](C)O4)O3)O2)C[C@H](O)[C@H]1C.N [MADURAMICIN]
- IC50 [1]: Not Active
- IC50 (Caspase-1): Not Active
- IC50 (Histamine H2 receptor; cho-k1): Not Active
- IC50 ([2]; cho-k1): Not Active
- IC50 [3]: Not Active
- IC50 [4]: Not Active

Compound: CCC(C)(C)C(=O)O[C@H]1C[C@@H](C)C=C2C=C[C@H](C)[C@H](CC[C@@H]3C[C@@H](O)CC(=O)O3)[C@H]21 [SIMVASTATIN]
- IC50 [1]: Not Active
- IC50 (Caspase-1): Not Active
- IC50 (Histamine H2 receptor; cho-k1): Not Active
- IC50 ([2]; cho-k1): Not Active
- IC50 [3]: Not Active
- IC50 [4]: Not Active

Compound: CN(C)CCC=C1c2ccccc2COc2ccccc21 [DOXEPIN]
- IC50 [1]: Not Active
- IC50 (Caspase-1): Not Active
- IC50 ([2]; cho-k1): Not Active
- IC50 [3]: Not Active

Compound: C#C[C@]1(O)CC[C@H]2[C@@H]3[C@H](C)CC4=C(CCC(=O)C4)[C@H]3CC[C@@]21C [TIBOLONE]
- IC50 [1]: Not Active
- IC50 (Caspase-1): Not Active
- IC50 (Histamine H2 receptor; cho-k1): Not Active
- IC50 ([2]; cho-k1): Not Active
- IC50 [3]: Not Active
- IC50 [4]: Not Active

Compound: Cc1nnc(NS(=O)(=O)c2ccc(N)cc2)s1 [SULFAMETHIZOLE]
- IC50 [1]: Not Active
- IC50 (Caspase-1): Not Active
- IC50 (Histamine H2 receptor; cho-k1): Not Active
- IC50 ([2]; cho-k1): Not Active
- IC50 [3]: Not Active
- IC50 [4]: Not Active
